Data as given in PubChem BioAssay (NCI).
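Each compound was tested at five concentrations against cells in 96-well plates for 48 hours. Here, GI50 denotes the concentration required for 50% inhibition of growth. At the TGI there is no net growth.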

Tests used:
Experiment in all cases: DTP human tumour cell line panel, 48 h
MDA-MB-468 breast = test system: MDA-MB-468 breast
MOLT-4 leukemia = test system: MOLT-4 leukemia
786-0 renal = test system: 786-0 renal
RPMI-8226 leukemia = test system: RPMI-8226 leukemia
UACC-257 melanoma = test system: UACC-257 melanoma
CCRF-CEM leukemia = test system: CCRF-CEM leukemia
COLO 205 colon = test system: COLO 205 colon
OVCAR-8 ovarian = test system: OVCAR-8 ovarian
K-562 leukemia = test system: K-562 leukemia
SK-MEL-28 melanoma = test system: SK-MEL-28 melanoma
EKVX NSCLC = test system: EKVX NSCLC
HCT-15 colon = test system: HCT-15 colon
KM12 colon = test system: KM12 colon
HS 578T breast = test system: HS 578T breast
SK-OV-3 ovarian = test system: SK-OV-3 ovarian
TK-10 renal = test system: TK-10 renal
NCI-H226 lung = test system: NCI-H226 lung
LOX IMVI melanoma = test system: LOX IMVI melanoma
HOP-92 NSCLC = test system: HOP-92 NSCLC
OVCAR-4 ovarian = test system: OVCAR-4 ovarian
RXF 393 renal = test system: RXF 393 renal
NCI-H522 lung = test system: NCI-H522 lung
SF-295 CNS = test system: SF-295 CNS
T-47D breast = test system: T-47D breast
SK-MEL-2 melanoma = test system: SK-MEL-2 melanoma
MDA-MB-435 = test system: MDA-MB-435
SK-MEL-5 melanoma = test system: SK-MEL-5 melanoma
A498 renal = test system: A498 renal
NCI-H23 lung = test system: NCI-H23 lung
M14 melanoma = test system: M14 melanoma
HT29 colon = test system: HT29 colon
CAKI-1 renal = test system: CAKI-1 renal
MCF7 breast = test system: MCF7 breast
SR leukemia = test system: SR leukemia
HCT-116 colon = test system: HCT-116 colon
OVCAR-3 ovarian = test system: OVCAR-3 ovarian
DU-145 prostate = test system: DU-145 prostate
HCC-2998 colon = test system: HCC-2998 colon
A549 NSCLC = test system: A549 NSCLC
PC-3 prostate = test system: PC-3 prostate
UO-31 renal = test system: UO-31 renal
HL-60(TB) leukemia = test system: HL-60(TB) leukemia
SNB-75 CNS = test system: SNB-75 CNS
SF-268 CNS = test system: SF-268 CNS
NCI-H460 lung = test system: NCI-H460 lung
IGROV1 ovarian = test system: IGROV1 ovarian
UACC-62 melanoma = test system: UACC-62 melanoma
BT-549 breast = test system: BT-549 breast
HOP-62 NSCLC = test system: HOP-62 NSCLC
SN12C renal = test system: SN12C renal
SF-539 CNS = test system: SF-539 CNS
ACHN renal = test system: ACHN renal
MALME-3M melanoma = test system: MALME-3M melanoma
OVCAR-5 ovarian = test system: OVCAR-5 ovarian
MDA-MB-231 breast = test system: MDA-MB-231 breast
SNB-19 CNS = test system: SNB-19 CNS
SW-620 colon = test system: SW-620 colon
U251 CNS = test system: U251 CNS

SMILES: CO[C@H]1/C=C(/C)CCC[C@H](C)[C@H](O)[C@@H](C)C(=O)C(C)(C)[C@@H](O)CC(=O)O[C@@H]1/C(C)=C/c1csc(C)n1
- GI50 (MDA-MB-468 breast): < 0.01 µM
- TGI (MDA-MB-468 breast): 0.0463 µM

SMILES: COc1cc(C2C(C(=O)OCc3ccccc3)=C(C)Nc3nc4ccccc4n32)cc(OC)c1OC (stereo not drawn)
- GI50 (MOLT-4 leukemia): 11.3 µM
- TGI (MOLT-4 leukemia): > 100 µM
- GI50 (786-0 renal): 1.8 µM
- TGI (786-0 renal): 3.56 µM
- GI50 (RPMI-8226 leukemia): 6.96 µM
- TGI (RPMI-8226 leukemia): > 100 µM
- GI50 (UACC-257 melanoma): 11.2 µM
- TGI (UACC-257 melanoma): 66.3 µM
- GI50 (MDA-MB-468 breast): 2.11 µM
- TGI (MDA-MB-468 breast): 5.83 µM
- GI50 (CCRF-CEM leukemia): 7.01 µM
- TGI (CCRF-CEM leukemia): > 100 µM
- GI50 (COLO 205 colon): 12.5 µM
- TGI (COLO 205 colon): > 100 µM
- GI50 (OVCAR-8 ovarian): 3.73 µM
- TGI (OVCAR-8 ovarian): 14.4 µM
- GI50 (K-562 leukemia): 3.38 µM
- TGI (K-562 leukemia): > 100 µM
- GI50 (SK-MEL-28 melanoma): 5.46 µM
- TGI (SK-MEL-28 melanoma): 59 µM
- GI50 (EKVX NSCLC): 10.8 µM
- TGI (EKVX NSCLC): 56.2 µM
- GI50 (HCT-15 colon): 5.91 µM
- TGI (HCT-15 colon): > 100 µM
- GI50 (KM12 colon): 3.75 µM
- TGI (KM12 colon): 27.4 µM
- GI50 (HS 578T breast): 2.25 µM
- TGI (HS 578T breast): 7.65 µM
- GI50 (SK-OV-3 ovarian): 2.46 µM
- TGI (SK-OV-3 ovarian): 5.86 µM
- GI50 (TK-10 renal): 2.15 µM
- TGI (TK-10 renal): 5.4 µM
- GI50 (NCI-H226 lung): 2.19 µM
- TGI (NCI-H226 lung): 6.81 µM
- GI50 (LOX IMVI melanoma): 3.43 µM
- TGI (LOX IMVI melanoma): 12.9 µM
- GI50 (HOP-92 NSCLC): 2.12 µM
- TGI (HOP-92 NSCLC): 6.61 µM
- GI50 (OVCAR-4 ovarian): 2.41 µM
- TGI (OVCAR-4 ovarian): 7.87 µM
- GI50 (RXF 393 renal): 1.4 µM
- TGI (RXF 393 renal): 4.71 µM
- GI50 (NCI-H522 lung): 2.64 µM
- TGI (NCI-H522 lung): 10.3 µM
- GI50 (SF-295 CNS): 3.35 µM
- TGI (SF-295 CNS): 13.2 µM
- GI50 (T-47D breast): 3.15 µM
- TGI (T-47D breast): 14.5 µM
- GI50 (SK-MEL-2 melanoma): 2.61 µM
- TGI (SK-MEL-2 melanoma): 7.76 µM
- GI50 (MDA-MB-435): 2.26 µM
- TGI (MDA-MB-435): 6.25 µM
- GI50 (SK-MEL-5 melanoma): 4.41 µM
- TGI (SK-MEL-5 melanoma): 19.5 µM
- GI50 (A498 renal): 1.88 µM
- TGI (A498 renal): 4.37 µM
- GI50 (NCI-H23 lung): 7 µM
- TGI (NCI-H23 lung): 29 µM
- GI50 (M14 melanoma): 6.01 µM
- TGI (M14 melanoma): 71 µM
- GI50 (HT29 colon): 4.35 µM
- TGI (HT29 colon): 22.3 µM
- GI50 (CAKI-1 renal): 2.45 µM
- TGI (CAKI-1 renal): 11.4 µM
- GI50 (MCF7 breast): 3.56 µM
- TGI (MCF7 breast): 17.8 µM
- GI50 (SR leukemia): 3.93 µM
- TGI (SR leukemia): > 100 µM
- GI50 (HCT-116 colon): 3.25 µM
- TGI (HCT-116 colon): 10.5 µM
- GI50 (OVCAR-3 ovarian): 2.67 µM
- TGI (OVCAR-3 ovarian): 7.56 µM
- GI50 (DU-145 prostate): 7.06 µM
- TGI (DU-145 prostate): 55.8 µM
- GI50 (HCC-2998 colon): 14.4 µM
- TGI (HCC-2998 colon): > 100 µM
- GI50 (A549 NSCLC): 3.28 µM
- TGI (A549 NSCLC): 11.4 µM
- GI50 (PC-3 prostate): 6.63 µM
- TGI (PC-3 prostate): > 100 µM
- GI50 (UO-31 renal): 2.11 µM
- TGI (UO-31 renal): 5.27 µM
- GI50 (HL-60(TB) leukemia): 7.02 µM
- TGI (HL-60(TB) leukemia): 76.7 µM
- GI50 (SNB-75 CNS): 1 µM
- TGI (SNB-75 CNS): 3.22 µM
- GI50 (SF-268 CNS): 3.22 µM
- TGI (SF-268 CNS): 19 µM
- GI50 (NCI-H460 lung): 3.87 µM
- TGI (NCI-H460 lung): 19.6 µM
- GI50 (IGROV1 ovarian): 4.42 µM
- TGI (IGROV1 ovarian): 30.5 µM
- GI50 (UACC-62 melanoma): 2.15 µM
- TGI (UACC-62 melanoma): 8.07 µM
- GI50 (BT-549 breast): 4.09 µM
- TGI (BT-549 breast): 18.1 µM
- GI50 (HOP-62 NSCLC): 2.75 µM
- TGI (HOP-62 NSCLC): 9.15 µM
- GI50 (SN12C renal): 3.3 µM
- TGI (SN12C renal): 21.2 µM
- GI50 (SF-539 CNS): 1.98 µM
- TGI (SF-539 CNS): 4.37 µM
- GI50 (ACHN renal): 2.97 µM
- TGI (ACHN renal): 9.01 µM
- GI50 (MALME-3M melanoma): 1.74 µM
- TGI (MALME-3M melanoma): 5.71 µM
- GI50 (OVCAR-5 ovarian): 7.88 µM
- TGI (OVCAR-5 ovarian): 38.3 µM
- GI50 (MDA-MB-231 breast): 1.97 µM
- TGI (MDA-MB-231 breast): 4.68 µM
- GI50 (SNB-19 CNS): 3.65 µM
- TGI (SNB-19 CNS): 15.8 µM
- GI50 (SW-620 colon): 6.23 µM
- TGI (SW-620 colon): > 100 µM
- GI50 (U251 CNS): 3.25 µM
- TGI (U251 CNS): 11.3 µM
